The structures appear in SMILES notation. pIC50: −log10 of the molar value.

By pIC50 is commonly meant the IC50 on a negative log10 scale, so that one unit is a factor of ten. High values mean a small IC50, low ones a large IC50.

The test system of one test is MDA-MB-231 cells. Description: ultra-low adherent 3D-spheroid suspension cell viability (3D Cell Titer-Glo), 120 hours. It counts as cell-based. Conditions: Homo sapiens. The protocol:
For ultra-low adherent 3D-spheroid suspensions, MDA-MB-231 cells were plated in 384-well format in media containing 10% Matrigel® and allowed to form spheroids overnight. Cells were treated with indicated molecules from compound stock plates using a JANUS® Workstation pin tool for 120 hours. To measure cell viability, 3D Cell Titer-Glo® was added to wells for 15 minutes at room temperature and luminescence was measured on an EnVision™ 2104 Multilabel Plate Reader.
For orientation: In ATP-based viability assays light output follows the ATP content of the culture.

Another test has as its target AAK1 (Homo sapiens (Human), UniProt Q2M2I8). Kind of test: KINOMEscan. It counts as binding. Conditions: AAK1, 10000 nM; read-out: Percent Control.
The next test concerns the target MAP4K2 (Homo sapiens (Human), UniProt Q12851). Description: KINOMEscan. In kind it is binding. Conditions: MAP4K2, 10000 nM; read-out: Percent Control.
The next test deals with MAPKAPK2 (Homo sapiens (Human), UniProt P49137). Description: KINOMEscan. It counts as binding. The following applies: MAPKAPK2, 10000 nM; read-out: Percent Control.
In another test the target is MKNK2 (Homo sapiens (Human), UniProt Q9HBH9). Kind of test: KINOMEscan. It counts as binding. Conditions: MKNK2, 10000 nM; read-out: Percent Control.
The target in another test is MYLK (Homo sapiens (Human), UniProt Q15746). Description: KINOMEscan. It counts as binding. Conditions: 10000 nM, read-out: Percent Control.
The next test concerns the target PKN1 (Homo sapiens (Human), UniProt Q16512). Kind of test: KINOMEscan. It counts as binding. Conditions: PKN1, 10000 nM; read-out: Percent Control.
The target of a further test is PRKD1 (Homo sapiens (Human), UniProt Q15139). Description: KINOMEscan. It counts as binding. The following applies: PRKD1, 10000 nM; read-out: Percent Control.
The target of another test is SRPK1 (Homo sapiens (Human), UniProt Q96SB4). Description: KINOMEscan. In kind it is binding. Conditions: SRPK1, 10000 nM; read-out: Percent Control.
The target of a further test is DCLK1 (Homo sapiens (Human), UniProt O15075). Kind of test: Biochemical IC50 (Invitrogen) of off-targets.
A further test concerns the target DCLK2 (Homo sapiens (Human), UniProt Q8N568). Description: Biochemical IC50 (Invitrogen) of off-targets.
For the next test, the target named is PLK1 (Homo sapiens (Human), UniProt P53350). Kind of test: Biochemical IC50 (Invitrogen) of off-targets.
Another test deals with STK33 (Homo sapiens (Human), UniProt Q9BYT3). Kind of test: Biochemical IC50 (Invitrogen) of off-targets.
The next test deals with TNK1 (Homo sapiens (Human), UniProt Q13470). Description: Biochemical IC50 (Invitrogen) of off-targets.

Chain of MAP4K2 (Q12851 whole entry): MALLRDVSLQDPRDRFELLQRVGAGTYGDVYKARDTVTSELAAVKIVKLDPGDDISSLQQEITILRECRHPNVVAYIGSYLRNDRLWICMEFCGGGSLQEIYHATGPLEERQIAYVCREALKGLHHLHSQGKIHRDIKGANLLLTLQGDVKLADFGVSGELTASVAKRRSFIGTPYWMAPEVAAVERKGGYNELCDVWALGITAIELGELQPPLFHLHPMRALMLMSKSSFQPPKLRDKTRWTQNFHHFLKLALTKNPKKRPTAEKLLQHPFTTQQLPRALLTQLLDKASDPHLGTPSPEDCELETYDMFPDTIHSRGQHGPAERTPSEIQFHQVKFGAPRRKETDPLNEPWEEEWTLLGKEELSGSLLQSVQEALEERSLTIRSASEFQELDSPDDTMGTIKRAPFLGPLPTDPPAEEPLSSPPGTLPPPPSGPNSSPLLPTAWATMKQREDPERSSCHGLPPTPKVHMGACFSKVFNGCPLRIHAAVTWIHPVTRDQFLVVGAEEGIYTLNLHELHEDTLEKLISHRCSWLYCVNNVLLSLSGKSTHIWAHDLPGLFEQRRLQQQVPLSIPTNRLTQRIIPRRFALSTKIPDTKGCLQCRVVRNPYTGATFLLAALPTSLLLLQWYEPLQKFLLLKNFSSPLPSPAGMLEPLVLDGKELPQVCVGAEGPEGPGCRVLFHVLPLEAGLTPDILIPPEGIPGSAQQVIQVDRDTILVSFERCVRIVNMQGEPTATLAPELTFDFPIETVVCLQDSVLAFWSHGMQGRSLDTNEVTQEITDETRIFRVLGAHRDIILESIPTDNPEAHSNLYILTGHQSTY
Chain of MYLK (Q15746 whole entry): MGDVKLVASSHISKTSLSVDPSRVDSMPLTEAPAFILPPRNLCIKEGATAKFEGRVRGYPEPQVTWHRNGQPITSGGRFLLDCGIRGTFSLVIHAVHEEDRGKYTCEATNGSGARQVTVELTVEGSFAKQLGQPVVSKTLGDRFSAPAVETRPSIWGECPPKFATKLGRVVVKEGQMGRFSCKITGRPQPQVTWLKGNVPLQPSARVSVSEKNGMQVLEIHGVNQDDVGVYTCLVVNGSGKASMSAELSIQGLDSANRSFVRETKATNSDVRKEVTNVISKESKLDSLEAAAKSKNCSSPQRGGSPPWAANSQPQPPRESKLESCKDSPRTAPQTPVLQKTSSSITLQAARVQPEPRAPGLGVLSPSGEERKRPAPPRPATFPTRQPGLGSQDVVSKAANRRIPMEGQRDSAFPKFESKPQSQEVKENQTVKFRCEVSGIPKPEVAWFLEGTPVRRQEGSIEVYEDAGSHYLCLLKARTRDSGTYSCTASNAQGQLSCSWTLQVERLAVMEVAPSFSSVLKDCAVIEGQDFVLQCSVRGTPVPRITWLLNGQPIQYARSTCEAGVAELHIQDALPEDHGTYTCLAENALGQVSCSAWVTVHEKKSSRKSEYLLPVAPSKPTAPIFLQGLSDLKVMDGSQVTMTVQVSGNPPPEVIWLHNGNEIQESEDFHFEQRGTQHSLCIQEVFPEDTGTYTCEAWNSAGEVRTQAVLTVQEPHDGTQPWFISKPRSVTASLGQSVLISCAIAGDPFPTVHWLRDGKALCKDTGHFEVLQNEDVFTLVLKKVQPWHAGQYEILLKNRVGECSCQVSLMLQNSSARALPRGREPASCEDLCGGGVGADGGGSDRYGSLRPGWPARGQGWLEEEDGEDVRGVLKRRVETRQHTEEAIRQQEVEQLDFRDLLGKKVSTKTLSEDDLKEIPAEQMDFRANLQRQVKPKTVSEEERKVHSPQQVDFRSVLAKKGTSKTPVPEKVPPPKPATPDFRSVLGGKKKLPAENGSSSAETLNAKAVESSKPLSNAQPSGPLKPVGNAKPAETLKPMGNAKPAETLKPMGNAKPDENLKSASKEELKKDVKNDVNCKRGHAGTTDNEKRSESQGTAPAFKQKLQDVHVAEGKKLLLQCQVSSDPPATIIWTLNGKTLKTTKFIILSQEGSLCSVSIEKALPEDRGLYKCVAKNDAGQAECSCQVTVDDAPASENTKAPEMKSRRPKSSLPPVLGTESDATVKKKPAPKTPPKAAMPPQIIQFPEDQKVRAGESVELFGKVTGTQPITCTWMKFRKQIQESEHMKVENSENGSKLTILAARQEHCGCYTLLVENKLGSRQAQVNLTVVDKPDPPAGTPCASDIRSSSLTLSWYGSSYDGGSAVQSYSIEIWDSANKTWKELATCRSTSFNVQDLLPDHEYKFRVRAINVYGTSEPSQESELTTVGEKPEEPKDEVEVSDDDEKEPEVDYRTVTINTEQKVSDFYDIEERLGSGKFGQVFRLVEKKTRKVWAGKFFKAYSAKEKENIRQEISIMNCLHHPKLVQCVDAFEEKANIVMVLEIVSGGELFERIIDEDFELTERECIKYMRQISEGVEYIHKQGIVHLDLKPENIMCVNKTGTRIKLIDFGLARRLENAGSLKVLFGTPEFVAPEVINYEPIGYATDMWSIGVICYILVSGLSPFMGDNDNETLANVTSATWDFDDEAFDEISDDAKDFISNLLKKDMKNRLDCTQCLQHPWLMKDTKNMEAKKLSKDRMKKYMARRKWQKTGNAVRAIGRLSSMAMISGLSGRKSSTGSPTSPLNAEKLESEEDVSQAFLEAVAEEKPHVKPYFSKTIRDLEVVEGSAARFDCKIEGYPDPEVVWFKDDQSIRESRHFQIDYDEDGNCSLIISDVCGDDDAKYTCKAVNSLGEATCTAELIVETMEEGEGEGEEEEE
Chain of MKNK2 (Q9HBH9 whole entry): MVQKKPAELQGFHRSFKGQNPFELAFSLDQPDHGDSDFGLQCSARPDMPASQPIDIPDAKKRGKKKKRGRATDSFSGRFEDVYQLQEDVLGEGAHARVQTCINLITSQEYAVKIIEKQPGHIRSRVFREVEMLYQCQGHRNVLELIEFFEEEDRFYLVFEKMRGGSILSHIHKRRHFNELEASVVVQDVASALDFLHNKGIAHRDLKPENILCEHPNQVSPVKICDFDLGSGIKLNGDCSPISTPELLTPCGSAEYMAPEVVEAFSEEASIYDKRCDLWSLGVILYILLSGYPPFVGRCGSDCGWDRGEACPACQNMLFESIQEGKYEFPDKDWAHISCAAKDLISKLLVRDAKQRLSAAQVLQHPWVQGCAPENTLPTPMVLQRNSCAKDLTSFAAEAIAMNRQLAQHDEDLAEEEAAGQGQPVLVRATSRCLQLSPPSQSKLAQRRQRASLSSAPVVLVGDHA
Chain of MAPKAPK2 (P49137 whole entry): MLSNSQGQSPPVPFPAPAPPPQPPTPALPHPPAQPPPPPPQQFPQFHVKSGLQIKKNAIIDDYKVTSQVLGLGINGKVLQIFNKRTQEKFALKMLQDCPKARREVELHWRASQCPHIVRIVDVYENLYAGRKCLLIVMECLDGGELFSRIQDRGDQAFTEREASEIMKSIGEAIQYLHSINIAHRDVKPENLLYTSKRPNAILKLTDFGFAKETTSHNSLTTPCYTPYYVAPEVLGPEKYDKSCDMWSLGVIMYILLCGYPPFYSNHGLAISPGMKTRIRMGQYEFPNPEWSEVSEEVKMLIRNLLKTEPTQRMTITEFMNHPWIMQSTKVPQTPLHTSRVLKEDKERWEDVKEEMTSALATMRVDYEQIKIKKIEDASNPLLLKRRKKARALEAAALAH
Chain of SRPK1 (Q96SB4 whole entry): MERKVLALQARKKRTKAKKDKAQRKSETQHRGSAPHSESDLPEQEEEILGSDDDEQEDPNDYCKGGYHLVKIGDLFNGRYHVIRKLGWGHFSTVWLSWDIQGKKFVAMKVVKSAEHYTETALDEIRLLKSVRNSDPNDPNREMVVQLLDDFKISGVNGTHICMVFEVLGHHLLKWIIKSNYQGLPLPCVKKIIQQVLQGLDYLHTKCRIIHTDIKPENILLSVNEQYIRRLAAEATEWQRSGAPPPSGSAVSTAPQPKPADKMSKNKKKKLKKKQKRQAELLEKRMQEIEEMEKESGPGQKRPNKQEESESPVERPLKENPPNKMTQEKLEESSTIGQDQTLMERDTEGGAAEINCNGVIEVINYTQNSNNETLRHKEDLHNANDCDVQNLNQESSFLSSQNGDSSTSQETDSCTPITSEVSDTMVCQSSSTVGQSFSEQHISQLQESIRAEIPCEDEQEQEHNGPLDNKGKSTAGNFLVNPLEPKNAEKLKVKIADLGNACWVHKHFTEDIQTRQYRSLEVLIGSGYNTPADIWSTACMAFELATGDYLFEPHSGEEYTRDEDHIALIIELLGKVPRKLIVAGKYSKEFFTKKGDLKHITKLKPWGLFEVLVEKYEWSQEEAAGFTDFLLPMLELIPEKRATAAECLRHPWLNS
Chain of DCLK2 (Q8N568 whole entry): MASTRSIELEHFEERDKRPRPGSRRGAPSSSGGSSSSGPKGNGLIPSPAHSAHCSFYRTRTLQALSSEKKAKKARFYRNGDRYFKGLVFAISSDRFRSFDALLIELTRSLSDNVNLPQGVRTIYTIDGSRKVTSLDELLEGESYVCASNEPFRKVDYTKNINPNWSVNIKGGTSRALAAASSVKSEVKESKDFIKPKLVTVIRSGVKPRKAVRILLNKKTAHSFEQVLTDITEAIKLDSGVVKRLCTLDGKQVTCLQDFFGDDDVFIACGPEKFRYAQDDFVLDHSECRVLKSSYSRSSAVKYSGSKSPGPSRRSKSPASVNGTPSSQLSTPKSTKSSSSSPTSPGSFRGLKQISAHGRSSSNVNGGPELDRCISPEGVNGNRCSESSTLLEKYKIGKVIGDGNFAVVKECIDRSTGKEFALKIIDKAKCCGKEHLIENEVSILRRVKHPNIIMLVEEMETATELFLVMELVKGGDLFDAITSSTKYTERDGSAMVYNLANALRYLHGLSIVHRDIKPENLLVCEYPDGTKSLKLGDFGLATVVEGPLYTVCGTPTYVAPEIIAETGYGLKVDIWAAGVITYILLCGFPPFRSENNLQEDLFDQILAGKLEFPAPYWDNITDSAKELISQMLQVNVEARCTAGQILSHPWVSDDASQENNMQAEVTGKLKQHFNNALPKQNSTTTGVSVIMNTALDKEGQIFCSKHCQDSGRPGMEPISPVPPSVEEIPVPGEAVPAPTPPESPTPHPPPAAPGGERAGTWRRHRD

`COc1cc(N2CCC(N3CCN(C)CC3)CC2)ccc1Nc1ncc2c(n1)N(C)c1sc(C)nc1C(=O)N2` [Compound 3, 6-((2-methoxy-4-(4-(4-methylpiperazin-1-yl)piperidin-1-yl)phenyl)amino)-2,4-dimethyl-4,9-dihydro-10H-pyrimido[5,4-b]thiazolo[5,4-e][1,4]diazepin-10-one]: the pIC50 with MDA-MB-231 cells is 5.17. Besides, the remaining binding at 10 µM was 48% on AAK1; 100% on MAP4K2; 100% at MAPKAPK2; 80% at MKNK2; 53% at MYLK; 69% on PKN1. In addition, the remaining binding at 10 µM worked out at 78% at PRKD1 and 100% on SRPK1.

For the compound `COc1cc(N2CCC(N3CCN(C)CC3)CC2)ccc1Nc1ncc2c(n1)N(C)c1sc(C)nc1C(=O)N2C` [Compound 5, 6-((2-methoxy-4-(4-(4-methylpiperazin-1-yl)piperidin-1-yl)phenyl)amino)-2,4,9-trimethyl-4,9-dihydro-10H-pyrimido[5,4-b]thiazolo[5,4-e][1,4]diazepin-10-one], the remaining binding at 10 µM at MAP4K2 is 94%; on MAPKAPK2, 100%; at MKNK2 it was 90%; at MYLK, 36%; on PKN1, 100%; on PRKD1, 43%. Moreover, the remaining binding at 10 µM at SRPK1 was 100%. Also, the pIC50 is 5.19 against DCLK1; 5.51 at DCLK2; 5.08 at PLK1; 5.67 against STK33; 5.50 against TNK1.

The values above are taken from patent US12365696B2, “Small-molecule focal adhesion kinase (FAK) inhibitors” (DANA-FARBER CANCER INSTITUTE, INC., priority 2019, dated 2025).
